Results taken from patent publication US20220323329A1, “ORAL HEALTH COMPOSITION AND PREPARATION PROCESS FOR ORAL HEALTH COMPOSITION” (MMF&T DESENVOLVIMENTO TECNOLÓGICO E INOVAÇÃO LTDA., priority 2019, published 2022).

Tests used:
[1] = tested on: Candida albicans (ATCC 10231); experiment: Antimicrobial potential of phthalocyanine by direct contact; type: cell-based; conditions: different concentrations and timespans (10.000 mg and 1.000 mg, 24 hours in FIG. 2)
Experimental: (§1) Studies were carried out for the improvement of antimicrobial potential of phthalocyanines, in an intrinsic aim of developing toothpastes, such as dental creams and dental foams including phthalocyanine for in vitro studies and possibly also in vivo studies.
(§2) For this purpose, the following microorganisms were used: Streptococcus mutans (ATCC 25175); Candida albicans (ATCC 10231); Enterococcus faecalis (ATCC 29212); and Staphylococcus aureus (ATCC 6538).

[2] = tested on: Enterococcus faecalis (ATCC 29212); experiment: as above; type: cell-based; conditions: different concentrations and timespans (10.000 mg and 1.000 mg, 24 hours in FIG. 3)
Experimental: as §1, §2

[3] = tested on: Staphylococcus aureus (ATCC 6538); experiment: as above; type: cell-based; conditions: different concentrations and timespans (10.000 mg and 1.000 mg, 24 hours in FIG. 4)
Experimental: as §1, §2

[4] = tested on: Streptococcus mutans (ATCC 25175); experiment: as above; type: cell-based; conditions: different concentrations and timespans (10.000 mg and 1.000 mg, 3 and 5 minutes in FIGS. 5, 6)
Experimental: as §1, §2

[5] = PDT with phthalocyanine-glucamine as PTS; rats; cited from earlier work

Compound	microbicidal action / inhibition of microbial growth [1]	microbicidal action / inhibition of microbial growth [2]	microbicidal action / inhibition of microbial growth [3]	microbicidal action / inhibition of microbial growth [4]	treatment of induced periodontal disease [5]
c1ccc2c(c1)-c1nc-2nc2[nH]c(nc3nc(nc4[nH]c(n1)c1ccccc41)-c1ccccc1-3)c1ccccc21 [phthalocyanine]	full inhibition of microbial growth	full inhibition of microbial growth	full inhibition of microbial growth	full inhibition of microbial growth	–
phthalocyanine-glucamine	–	–	–	–	effective in the treatment of periodontal disease induced in rats
